# Source: article PMC4468608, “A distinct p53 target gene set predicts for response to the selective p53–HDM2 inhibitor NVP-CGM097” (eLife, 2015)
# System: cell lines from the Cancer Cell Line Encyclopedia (CCLE)
# Assay: High-throughput cell viability assay, CCLE cell line panel (n = 356)
# Type: cell-based, human
# Method: Cell lines were partitioned into sensitive and insensitive groups based on compound potency (IC50). […] All other cell lines were obtained from ATCC (American Type Culture Collection), DSMZ (Deutsche Sammlung von Mikroorganismen und Zellkulturen), and HSRRB (Health Science Research Resources Bank) and cultured in RPMI or Dulbecco's modified Eagle's medium plus 10% FBS (Invitrogen, Carlsbad, CA) at 37°C, 5% CO2.
# [1] = cell line KMRC-1, kidney, TP53 WT
# [2] = cell line KMS-27, haem._and_lymphoid_tissue, TP53 WT
# [3] = cell line KMS-28BM, haem._and_lymphoid_tissue, TP53 WT
# [4] = cell line KNS-42, central_nervous_system, TP53 MUT
# [5] = cell line KYSE-410, oesophagus, TP53 MUT
# [6] = cell line KYSE-450, oesophagus, TP53 MUT
# [7] = cell line KYSE-510, oesophagus, TP53 MUT
# [8] = cell line KYSE-520, oesophagus, TP53 MUT
# [9] = cell line L-428, haem._and_lymphoid_tissue, TP53 MUT
# [10] = cell line LN-229, central_nervous_system, TP53 WT
# [11] = cell line MEL-HO, skin, TP53 WT
# [12] = cell line MHH-ES-1, bone, TP53 MUT
# [13] = cell line Malme-3M, skin, TP53 WT
# [14] = cell line NCI-H460, lung, TP53 WT
# [15] = cell line NCI-H647, lung, TP53 MUT
# [16] = cell line NCI-H1299, lung, TP53 WT
# [17] = cell line NCI-H1341, lung, TP53 WT
# [18] = cell line NCI-H1650, lung, TP53 MUT
# [19] = cell line NCI-H1693, lung, TP53 MUT
# [20] = cell line NCI-H1703, lung, TP53 MUT
# [21] = cell line OAW42, ovary, TP53 WT
# [22] = cell line OE19, oesophagus, TP53 MUT
# [23] = cell line OVCAR-8, ovary, TP53 MUT
# [24] = cell line PE/CA-PJ41 (clone D2), upper_aerodigestive_tract, TP53 MUT
# [25] = cell line PEER, haem._and_lymphoid_tissue, TP53 MUT
# [26] = cell line SCaBER, urinary_tract, TP53 MUT
# [27] = cell line SK-HEP-1, liver, TP53 WT
# [28] = cell line SK-MEL-5, skin, TP53 WT
# [29] = cell line SK-MEL-24, skin, TP53 WT
# [30] = cell line SNG-M, endometrium, TP53 WT
# [31] = cell line SNU-423, liver, TP53 MUT
# [32] = cell line SW403, large_intestine, TP53 MUT
# [33] = cell line SW 780, urinary_tract, TP53 WT
# [34] = cell line SW 1573, lung, TP53 WT
# [35] = cell line TE-9, oesophagus, TP53 MUT
# [36] = cell line TE-11, oesophagus, TP53 MUT
# [37] = cell line UM-UC-3, urinary_tract, TP53 MUT
# [38] = cut-off IC50 4 µM, 356 cell lines
compound,measurement,setting,value
COc1cc2c(cc1OC(C)C)[C@H](c1ccc(Cl)cc1)N(c1ccc(N(C)C[C@H]3CC[C@H](N4CCNC(=O)C4)CC3)cc1)C(=O)C2 [NVP-CFC218],NVP- CFC218 sensitivity call,"cell line JHOS-2, ovary, TP53 MUT",insensitive (Sensitivity call for each compound was applied according to a cut-off of 4 µM for IC50 and -50% for Amax)
same,NVP- CFC218 Amax (%),[1],-42.40%
same,NVP- CFC218 sensitivity call,[1],insensitive (Sensitivity call for each compound was applied according to a cut-off of 4 µM for IC50 and -50% for Amax)
same,NVP- CFC218 Amax (%),[2],-1.14%
same,NVP- CFC218 sensitivity call,[2],insensitive (Sensitivity call for each compound was applied according to a cut-off of 4 µM for IC50 and -50% for Amax)
same,NVP- CFC218 Amax (%),[3],3.74%
same,NVP- CFC218 sensitivity call,[3],insensitive (Sensitivity call for each compound was applied according to a cut-off of 4 µM for IC50 and -50% for Amax)
same,NVP- CFC218 Amax (%),[4],-8.48%
same,NVP- CFC218 sensitivity call,[4],insensitive (Sensitivity call for each compound was applied according to a cut-off of 4 µM for IC50 and -50% for Amax)
same,NVP- CFC218 Amax (%),[5],-24.33%
same,NVP- CFC218 sensitivity call,[5],insensitive (Sensitivity call for each compound was applied according to a cut-off of 4 µM for IC50 and -50% for Amax)
same,NVP- CFC218 Amax (%),[6],-1.37%
same,NVP- CFC218 sensitivity call,[6],insensitive (Sensitivity call for each compound was applied according to a cut-off of 4 µM for IC50 and -50% for Amax)
same,NVP- CFC218 Amax (%),[7],3.18%
same,NVP- CFC218 sensitivity call,[7],insensitive (Sensitivity call for each compound was applied according to a cut-off of 4 µM for IC50 and -50% for Amax)
same,NVP- CFC218 Amax (%),[8],-5.52%
same,NVP- CFC218 sensitivity call,[8],insensitive (Sensitivity call for each compound was applied according to a cut-off of 4 µM for IC50 and -50% for Amax)
same,NVP- CFC218 Amax (%),[9],-26.31%
same,NVP- CFC218 sensitivity call,[9],insensitive (Sensitivity call for each compound was applied according to a cut-off of 4 µM for IC50 and -50% for Amax)
same,NVP- CFC218 Amax (%),[10],-42.01%
same,NVP- CFC218 sensitivity call,[10],insensitive (Sensitivity call for each compound was applied according to a cut-off of 4 µM for IC50 and -50% for Amax)
same,NVP- CFC218 Amax (%),[11],-40.38%
same,NVP- CFC218 sensitivity call,[11],insensitive (Sensitivity call for each compound was applied according to a cut-off of 4 µM for IC50 and -50% for Amax)
same,NVP- CFC218 Amax (%),[12],1.25%
same,NVP- CFC218 sensitivity call,[12],insensitive (Sensitivity call for each compound was applied according to a cut-off of 4 µM for IC50 and -50% for Amax)
same,NVP- CFC218 Amax (%),[13],-39.40%
same,NVP- CFC218 sensitivity call,[13],insensitive (Sensitivity call for each compound was applied according to a cut-off of 4 µM for IC50 and -50% for Amax)
same,NVP- CFC218 Amax (%),[14],0.31%
same,NVP- CFC218 sensitivity call,[14],insensitive (Sensitivity call for each compound was applied according to a cut-off of 4 µM for IC50 and -50% for Amax)
same,NVP- CFC218 Amax (%),[15],-29.54%
same,NVP- CFC218 sensitivity call,[15],insensitive (Sensitivity call for each compound was applied according to a cut-off of 4 µM for IC50 and -50% for Amax)
same,NVP- CFC218 Amax (%),[16],0.83%
same,NVP- CFC218 sensitivity call,[16],insensitive (Sensitivity call for each compound was applied according to a cut-off of 4 µM for IC50 and -50% for Amax)
same,NVP- CFC218 Amax (%),[17],-36.36%
same,NVP- CFC218 sensitivity call,[17],insensitive (Sensitivity call for each compound was applied according to a cut-off of 4 µM for IC50 and -50% for Amax)
same,NVP- CFC218 Amax (%),[18],2.72%
same,NVP- CFC218 sensitivity call,[18],insensitive (Sensitivity call for each compound was applied according to a cut-off of 4 µM for IC50 and -50% for Amax)
same,NVP- CFC218 Amax (%),[19],-4.47%
same,NVP- CFC218 sensitivity call,[19],insensitive (Sensitivity call for each compound was applied according to a cut-off of 4 µM for IC50 and -50% for Amax)
same,NVP- CFC218 Amax (%),[20],-40.27%
same,NVP- CFC218 sensitivity call,[20],insensitive (Sensitivity call for each compound was applied according to a cut-off of 4 µM for IC50 and -50% for Amax)
same,NVP- CFC218 Amax (%),[21],-7.13%
same,NVP- CFC218 sensitivity call,[21],insensitive (Sensitivity call for each compound was applied according to a cut-off of 4 µM for IC50 and -50% for Amax)
same,NVP- CFC218 Amax (%),[22],14.48%
same,NVP- CFC218 sensitivity call,[22],insensitive (Sensitivity call for each compound was applied according to a cut-off of 4 µM for IC50 and -50% for Amax)
same,NVP- CFC218 Amax (%),[23],-30.79%
same,NVP- CFC218 sensitivity call,[23],insensitive (Sensitivity call for each compound was applied according to a cut-off of 4 µM for IC50 and -50% for Amax)
same,NVP- CFC218 Amax (%),[24],-0.29%
same,NVP- CFC218 sensitivity call,[24],insensitive (Sensitivity call for each compound was applied according to a cut-off of 4 µM for IC50 and -50% for Amax)
same,NVP- CFC218 Amax (%),[25],-46.94%
same,NVP- CFC218 sensitivity call,[25],insensitive (Sensitivity call for each compound was applied according to a cut-off of 4 µM for IC50 and -50% for Amax)
same,NVP- CFC218 Amax (%),[26],0.88%
same,NVP- CFC218 sensitivity call,[26],insensitive (Sensitivity call for each compound was applied according to a cut-off of 4 µM for IC50 and -50% for Amax)
same,NVP- CFC218 Amax (%),[27],-41.72%
same,NVP- CFC218 sensitivity call,[27],insensitive (Sensitivity call for each compound was applied according to a cut-off of 4 µM for IC50 and -50% for Amax)
same,NVP- CFC218 Amax (%),[28],-47.83%
same,NVP- CFC218 sensitivity call,[28],insensitive (Sensitivity call for each compound was applied according to a cut-off of 4 µM for IC50 and -50% for Amax)
same,NVP- CFC218 Amax (%),[29],-47.55%
same,NVP- CFC218 sensitivity call,[29],insensitive (Sensitivity call for each compound was applied according to a cut-off of 4 µM for IC50 and -50% for Amax)
same,NVP- CFC218 Amax (%),[30],-25.75%
same,NVP- CFC218 sensitivity call,[30],insensitive (Sensitivity call for each compound was applied according to a cut-off of 4 µM for IC50 and -50% for Amax)
same,NVP- CFC218 Amax (%),[31],-5.91%
same,NVP- CFC218 sensitivity call,[31],insensitive (Sensitivity call for each compound was applied according to a cut-off of 4 µM for IC50 and -50% for Amax)
same,NVP- CFC218 Amax (%),[32],51.39%
same,NVP- CFC218 sensitivity call,[32],insensitive (Sensitivity call for each compound was applied according to a cut-off of 4 µM for IC50 and -50% for Amax)
same,NVP- CFC218 Amax (%),[33],-38.52%
same,NVP- CFC218 sensitivity call,[33],insensitive (Sensitivity call for each compound was applied according to a cut-off of 4 µM for IC50 and -50% for Amax)
same,NVP- CFC218 Amax (%),[34],-48.52%
same,NVP- CFC218 sensitivity call,[34],insensitive (Sensitivity call for each compound was applied according to a cut-off of 4 µM for IC50 and -50% for Amax)
same,NVP- CFC218 Amax (%),"cell line Sq-1, lung, TP53 WT",4.40%
same,NVP- CFC218 sensitivity call,"cell line Sq-1, lung, TP53 WT",insensitive (Sensitivity call for each compound was applied according to a cut-off of 4 µM for IC50 and -50% for Amax)
same,NVP- CFC218 Amax (%),[35],-6.46%
same,NVP- CFC218 sensitivity call,[35],insensitive (Sensitivity call for each compound was applied according to a cut-off of 4 µM for IC50 and -50% for Amax)
same,NVP- CFC218 Amax (%),[36],-3.43%
same,NVP- CFC218 sensitivity call,[36],insensitive (Sensitivity call for each compound was applied according to a cut-off of 4 µM for IC50 and -50% for Amax)
same,NVP- CFC218 Amax (%),[37],-27.23%
same,NVP- CFC218 sensitivity call,[37],insensitive (Sensitivity call for each compound was applied according to a cut-off of 4 µM for IC50 and -50% for Amax)
same,NVP- CFC218 Amax (%),"cell line WM-88, skin, TP53 WT",-37.15%
same,NVP- CFC218 sensitivity call,"cell line WM-88, skin, TP53 WT",insensitive (Sensitivity call for each compound was applied according to a cut-off of 4 µM for IC50 and -50% for Amax)
same,"Number of insensitive cell lines, p53MUT",[38],252
same,"Number of insensitive cell lines, p53WT",[38],57
same,"Number of insensitive cell lines, total",[38],309
same,"Number of sensitive cell lines, p53MUT",[38],4
same,"Number of sensitive cell lines, p53WT",[38],43
same,baseline response rate without prior stratification,estimated from the NVP-CFC218 sensitivity data,19%
same,maximal compound effect level (Amax),for the sensitive cell lines,≤ −50%
